# According to US8815535B2, “Disk diffusion assay for oritavancin” (The Medicines Company, priority 2011, dated 2014):
# Where two headings read alike, the source gives them in different places.
# Assays:
# [1] = test system: MRSA NRS123; test: Disk diffusion assay (zone of inhibition); format: cell-based; conditions: Staphylococcus aureus; for zone of inhibition at 90 µg/disc: 90 μg oritavancin; for zone of inhibition at 180 µg/disc: 180 μg oritavancin
# Text: (§1) The study was designed to identify conditions that improve oritavancin diffusion in agar and consequently yield a zone diameter ≧15 mm for the CLSI quality control strain MSSA ATCC 25923. Excipients that increased the disk diffusion of oritavancin in agar relative to disks containing only oritavancin were identified and selected for further study. […] A prediffusion step at room temperature was introduced to maximize oritavancin diffusion prior to initiation of bacterial growth. In this step, the antimicrobial disks were placed on agar plates seeded with a bacterial isolate and incubated at room temperature for 3 hours. Plates were then incubated overnight at 37° C. Zone diameters around the disks in which bacterial growth was inhibited were measured with a ruler and reported in millimeters.
# (§2) Ethanol-sterilized Whatman paper disks (6 mm diameter) were allowed to dry then impregnated with 20 microliters of oritavancin solution containing total amounts ranging from 90 to 360 micrograms. Disks were allowed to dry at room temperature for various times prior to use.
# (§3) Bacterial suspensions were prepared and adjusted to an optical density of 0.1 at 600 nm. Standard cation-adjusted Mueller Hinton agar plates (90 mm diameter) were seeded with bacterial suspensions by initially swabbing the center of plate then moving outward towards the edge. The plate was swabbed a second time, perpendicular to the orientation of the first swab. To assess the impact of prediffusion on diameter of inhibition zones, two disks were immediately placed on one half of the plate and the plate was incubated for 3 hours at room temperature. After 3 hours, two additional disks were placed on the other half of the plate then the plate was incubated overnight at 37° C. Zone diameters were measured with a ruler and reported in millimeters.
# [2] = test system: MSSA T972018; test: Disk diffusion assay (zone of inhibition); format: cell-based; conditions: Staphylococcus aureus, read-out: Zone diameter (mm ± SD)
# Text: as §1, §2, §3
# [3] = test system: MRSA NRS123-ORI^RS; test: Disk diffusion assay (zone of inhibition); format: cell-based; conditions: Staphylococcus aureus, read-out: Zone diameter (mm ± SD)
# Text: as §1, §2, §3
# [4] = test system: MRSA NRS121; test: Disk diffusion assay (zone of inhibition); format: cell-based; conditions: Staphylococcus aureus, read-out: Zone diameter (mm ± SD), NRS121, 360 μg in 5% P80
# Text: as §1, §2, §3
# [5] = test system: S. aureus isolates; test: Disk diffusion assay, panel of isolates; format: cell-based, Staphylococcus aureus
# Text: as §1, §2, §3
# Oritavancin powder was dissolved in freshly-prepared solutions of the indicated excipients at concentrations of 0.625, 1.25, 2.5, 5, and 10 mg/ml (adjusted for potency based on lot 875561L00 purity of 83.1%) by vortexing for a minimum of 5 minutes. Oritavancin solutions in the various excipients, while not visually clear, were free from any apparent particulates as assessed visually. Sterile Oxoid blank disks were impregnated with 20 μl of these oritavancin solutions, resulting in oritavancin disk loads ranging from 12.5 to 200 μg. Unless indicated otherwise, disks were allowed to dry overnight at room temperature prior to use.
# Bacterial suspensions from isolated colonies on overnight cation-adjusted Mueller Hinton agar plates were prepared in sterile saline and adjusted to an optical density of 0.1 at 600 nm Standard cation-adjusted Mueller Hinton agar plates (90 mm diameter) were seeded with bacterial suspensions by initially swabbing the center of plate then moving outward. Swabbing was continued at a right angle and then at an oblique angle to the first and second swabs. Disks were placed upon the seeded plates with sterile forceps. Plates were then incubated overnight at 37° C. and inhibition zone diameters were measured with a ruler and reported in millimeters.
# [6] = 192 h, 2.5% P80, disks stored 8 days, prediffusion, read-out: Average zone diameter
# [7] = 336 h, 5% P80, disks stored 14 days, prediffusion, read-out: Average zone diameter
# [8] = 336 h, 10% P80, disks stored 14 days, prediffusion, read-out: Average zone diameter
# [9] = 360 μg in 5% P80, Experiment 2, disks stored 8 days, 3 h prediffusion at room temperature
# [10] = 192 h, 360 μg in 5% P80, Experiment 2, disks stored 8 days, no prediffusion
compound,measurement,setting,value
"CN[C@H](CC(C)C)C(=O)N[C@H]1C(=O)N[C@@H](CC(N)=O)C(=O)N[C@H]2C(=O)N[C@H]3C(=O)N[C@H](C(=O)N[C@H](C(=O)O)c4cc(O)cc(O)c4-c4cc3ccc4O)[C@H](O[C@H]3C[C@](C)(N)[C@@H](O)[C@H](C)O3)c3ccc(c(Cl)c3)Oc3cc2cc(c3O[C@@H]2O[C@H](CO)[C@@H](O)[C@H](O)[C@H]2O[C@H]2C[C@](C)(NCc3ccc(-c4ccc(Cl)cc4)cc3)[C@@H](O)[C@H](C)O2)Oc2ccc(cc2Cl)[C@H]1O [oritavancin, N-(4-(4-chlorophenyl)benzyl)A82846B]",zone of inhibition at 360 µg/disc,"[1]; 360 μg in 5% P80, Experiment 1, disks stored 14 days, 3 h prediffusion at room temperature, read-out: Zone diameter (mm ± SD)",19.5 mm
same,zone of inhibition at 360 µg/disc,"[1]; 360 μg in 5% P80, Experiment 2, disks stored 8 days, 3 h prediffusion at room temperature, read-out: Zone diameter (mm ± SD)",18 mm
same,zone of inhibition at 90 µg/disc,[1]; [6],15.8 mm
same,zone of inhibition at 180 µg/disc,[1]; [6],16.5 mm
same,zone of inhibition at 360 µg/disc,"[1]; 192 h, 360 μg in 5% P80, Experiment 2, disks stored 8 days, no prediffusion, read-out: Zone diameter (mm ± SD)",15.8 ± 0.4 mm
same,zone of inhibition at 360 µg/disc,"[1]; 192 h, 360 μg oritavancin, 2.5% P80, disks stored 8 days, prediffusion, read-out: Average zone diameter",16.8 mm
same,zone of inhibition at 90 µg/disc,[1]; [7],16 mm
same,zone of inhibition at 90 µg/disc,[1]; [8],15.5 mm
same,zone of inhibition at 180 µg/disc,[1]; [7],17.3 mm
same,zone of inhibition at 180 µg/disc,[1]; [8],17.3 mm
same,zone of inhibition at 360 µg/disc,"[1]; 336 h, 360 μg in 5% P80, Experiment 1, disks stored 14 days, no prediffusion, read-out: Zone diameter (mm ± SD)",16.3 ± 0.4 mm
same,zone of inhibition at 360 µg/disc,"[1]; 336 h, 360 μg oritavancin, 5% P80, disks stored 14 days, prediffusion, read-out: Average zone diameter",18.5 mm
same,zone of inhibition at 360 µg/disc,"[1]; 336 h, 360 μg oritavancin, 10% P80, disks stored 14 days, prediffusion, read-out: Average zone diameter",17.5 mm
same,zone of inhibition at 360 µg/disc,"[2]; 360 μg in 5% P80, Average of experiments, no prediffusion",15 ± 0.6 mm
same,zone of inhibition at 360 µg/disc,"[2]; 360 μg in 5% P80, Average of experiments, prediffusion",17.4 ± 0.3 mm
same,zone of inhibition at 360 µg/disc,"[2]; 360 μg in 5% P80, Experiment 1, disks stored 14 days, 3 h prediffusion at room temperature",17.5 mm
same,zone of inhibition at 360 µg/disc,[2]; [9],17.3 ± 0.4 mm
same,zone of inhibition at 360 µg/disc,[2]; [10],14.5 mm
same,zone of inhibition at 360 µg/disc,"[2]; 336 h, 360 μg in 5% P80, Experiment 1, disks stored 14 days, no prediffusion",15.5 mm
same,zone of inhibition at 360 µg/disc,"[3]; 360 μg in 5% P80, Average, no prediffusion",14 mm
same,zone of inhibition at 360 µg/disc,"[3]; 360 μg in 5% P80, Average, prediffusion",15 mm
same,zone of inhibition at 360 µg/disc,[3]; [9],15 mm
same,zone of inhibition at 360 µg/disc,[3]; [10],14 mm
same,zone of inhibition at 360 µg/disc,"[4]; 192 h, Experiment 2, disks stored 8 days, no prediffusion",15 mm
same,zone of inhibition at 360 µg/disc,"[4]; Average, no prediffusion",15 mm
same,zone of inhibition at 360 µg/disc,"[4]; Average, prediffusion",17.3 ± 0.4 mm
same,zone of inhibition at 360 µg/disc,"[4]; Experiment 2, disks stored 8 days, 3 h prediffusion at room temperature",17.3 ± 0.4 mm
same,Zone diameter smaller for the two reduced-susceptibility isolates compared to MSSA and MRSA isolates exhibiting the same BMD MICs,[5]; 360 μg in 5% P80,approximately 2 mm
same,Average increase of zone diameter by prediffusion,"[5]; MSSA and MRSA strains, 360 μg in 5% P80",approximately 2.5 mm
same,zone of inhibition at 1250 µg/mL,"[5]; Staphylococcus aureus, 19 wild-type clinical isolates, 20 μl of 1.25 mg/ml in 4% P80/Span 80 (1:1), calcium alginate swabs, read-out: Inhibition zone diameters",20 to 24 mm
same,Average increase of zone diameter by prediffusion,"[5]; VISA and oritavancin reduced-susceptibility isolates, 360 μg in 5% P80",approximately 1.1 mm
same,Zone diameters,"[5]; many S. aureus strains, different combinations of the alterations to the traditional assay",> 15 mm
